The nature of this data set: physchem. An excerpt: At pH 4 and 5, 0.1 M citrate buffers were used, while for pH 6, 7 and 8 a set of 0.1M phosphate buffers were used. Each buffer also contained 0.2 M NaCl. No cosolvents or other potentially solubilizing components were included. Buffer preparations were subdivided in order to individually test the solubility of only one material in a given buffer sample.

Data on one molecule can be found in patent publication US20110166128A1, “Diaryldiazepine Prodrugs for the Treatment of Neurological and Psychological Disorders” (priority 2010, published 2011).

SMILES strings stand for the structures.

As usually defined, the solubility is the dissolved amount per volume that the medium holds. Higher therefore signals much dissolved substance. In the case of `CCCCCCCCCCCCC(C)(C)C(=O)OC[N+]1(C)CCN(C2=Nc3ccccc3Nc3sc(C)cc32)CC1.[I-]` [Compound 18, 1-(((2,2-dimethyltetradecanoyl)oxy)methyl)-1-methyl-4-(2-methyl-10H-benzo[b]thieno[2,3-e][1,4]diazepin-4-yl)piperazin-1-ium iodide], the “variation in solubility across the pH range studied” value is “less than 2 fold”. This molecule also had a solubility (pH 4, aqueous buffer, thermodynamic from solid) of 0.1 to 0.2 ng/mL.
